Assay results from patent US7935724B2, “Thiophene and benzothiophene hydroxamic acid derivatives” (Merck HDAC Research, LLC, priority 2003, dated 2011).
Read-outs that look alike come from different tables or passages of the source.

Tests used:
[1] = target: T1, histone deacetylase, subtype 1 (HDAC1) (Homo sapiens, UniProt Q13547); assay: HDAC1-Flag assay (in vitro deacetylation assay); format: biochemical; conditions: concentration for 50% inhibition of deacetylation, substrate at Km, unit inferred, text gives nm, read-out: HDAC Inhibition
T1 construct: Flag; made in house
T1 sequence (Q13547 whole entry): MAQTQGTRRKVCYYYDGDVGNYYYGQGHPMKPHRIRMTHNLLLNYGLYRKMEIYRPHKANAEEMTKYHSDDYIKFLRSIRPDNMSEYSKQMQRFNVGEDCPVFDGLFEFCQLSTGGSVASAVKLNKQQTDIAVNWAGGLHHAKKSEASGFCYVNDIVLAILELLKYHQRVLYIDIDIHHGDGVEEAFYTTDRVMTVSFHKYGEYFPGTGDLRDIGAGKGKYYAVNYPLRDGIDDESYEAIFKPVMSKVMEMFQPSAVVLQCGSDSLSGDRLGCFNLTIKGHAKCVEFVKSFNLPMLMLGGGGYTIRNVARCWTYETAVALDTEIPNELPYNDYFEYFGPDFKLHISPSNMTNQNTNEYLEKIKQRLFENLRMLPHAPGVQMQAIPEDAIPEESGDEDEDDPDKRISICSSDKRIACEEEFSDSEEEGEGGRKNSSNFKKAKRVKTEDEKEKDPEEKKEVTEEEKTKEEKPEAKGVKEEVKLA
Procedure: Novel compounds were tested for their ability to inhibit histone deacetylase, subtype 1 (HDAC1) using an in vitro deacetylation assay. The enzyme source for this assay was an epitope-tagged human HDAC1 complex immuno-purified from stably expressing mammalian cells. The substrate consisted of a commercial product containing an acetylated lysine side chain (BIOMOL Research Laboratories, Inc., Plymouth Meeting, Pa.). Upon deacetylation of the substrate by incubation with the purified HDAC1 complex, a fluorophore is produced that is directly proportional to the level of deacetylation.

[2] = tested on: murine erythroleukemia cell line SC9; assay: MTS assay (Cell Titer 96 Aqueous One Solution Cell Proliferation Assay); format: cell-based; conditions: unit inferred, unit nm
Procedure: The novel compounds of the present invention were tested for their ability to inhibit proliferation of the murine erythroleukemia cell line SC9.
The MTS assay, also referred to as the Cell Titer 96 Aqueous One Solution Cell Proliferation Assay, is a calorimetric method for determining the number of viable cells in proliferation, cytotoxicity or chemosensitivity assays. The MTS reagent contains a novel tetrazolium compound [3-(4,5-dimethylthiazol-2-yl)-5-(3-carboxymethoxyphenyl)-2-(4-sulfophenyl)-2H-tetrazolium, inner salt] and electron coupling reagent (phenazine ethosulfate;PES). Murine erythroleukemia cells (SC-9) were incubated with vehicle or increasing concentrations of compound for 48 hours. Cell proliferation was quantitated by adding a small amount of the MTS reagent directly to culture wells, incubating for 1-4 hours and then recording the absorbance at 490 nm with a 96-well plate reader. The quantity of formazan product, as measured by […] absorbance, is directly proportional to the number of living cells in culture.

[3] = Table 1, benzothiophene backbone
[4] = Mus musculus, SC9, 48 h, Table 3, concentration inhibiting proliferation of SC9 cells
[5] = Table 3, concentration inhibiting proliferation of SC9 cells, 48 hours

Row | Compound | IC50 [1, 3] | IC50 [2, 4] | IC50 [2, 5] | IC50 ([1]; Table 2, thiophene backbone)
1 | O=C(Cc1ccccc1)Nc1ccc2cc(C(=O)NO)sc2c1 [Compound 6] | 11.5 ± 2.1 nM | 250 ± 57.2 nM |  | 
2 | O=C(NO)c1cc2ccc(NC(=O)C3(c4ccc(Cl)cc4)CCC3)cc2s1 [Compound 127] | 115 ± 9.8 nM | 935 nM |  | 
3 | O=C(NO)c1cc2cc(CNCc3ccccn3)ccc2s1 [Compound 142] | 258 ± 17 nM | 714 nM |  | 
4 | O=C(NO)c1cc2ccc(CNCCc3c[nH]c4ccccc34)cc2s1 [Compound 188] | 82.5 ± 16.2 nM | 191 nM |  | 
5 | O=C(NO)c1cc2cc(CNCc3ccccc3)ccc2s1 [Compound 99] | 144 ± 53 nM | 474 ± 65.7 nM |  | 
6 | O=C(NO)c1cc2ccc(NS(=O)(=O)c3cccc4ccccc34)cc2s1 [Compound 13] | 26 ± 1.4 nM | 441 nM |  | 
7 | O=C(CN1CCC(Cc2ccccc2)CC1)Nc1ccc2cc(C(=O)NO)sc2c1 [Compound 90] | 99.5 ± 37.4 nM | 704 ± 96.1 nM |  | 
8 | CCC(C(=O)Nc1ccc2cc(C(=O)NO)sc2c1)c1ccccc1 (stereo not drawn) [Compound 181] | 59.5 ± 3.5 nM |  | 528 nM | 
9 | O=C(Cc1ccccc1)Nc1ccc(C(=O)NO)s1 [Compound 59] |  | 642 nM |  | 63.5 ± 7.7 nM
10 | O=C(NO)c1cc2ccc(NC(=O)c3cccc4ccccc34)cc2s1 [Compound 33] | 79 ± 11.3 nM | 785 nM |  | 
11 | COc1cccc(N2CCN(CC(=O)Nc3ccc4cc(C(=O)NO)sc4c3)CC2)c1 [Compound 100] | 45 ± 5.6 nM | 519 ± 65.7 nM |  | 
12 | O=C(NO)c1cc2cc(CNC3CCN(Cc4ccccc4)CC3)ccc2s1 [Compound 146] | 524 ± 102 nM | 891 nM |  | 
13 | CC(C(=O)Nc1ccc2cc(C(=O)NO)sc2c1)c1ccccc1 (stereo not drawn) [Compound 123] | 18 ± 5.6 nM | 206 ± 79.2 nM |  | 
14 | O=C(CN1CCCCC1)Nc1ccc2cc(C(=O)NO)sc2c1 [Compound 115] | 38 nM | 306 ± 78.5 nM |  | 

Further lines, results first:

Row | IC50 [1, 3] | IC50 [2, 4] | IC50 [2, 5] | IC50 ([1]; Table 2, thiophene backbone) | Compound
15 | 125 ± 5.6 nM | 836 nM |  |  | O=C(NO)c1cc2ccc(NC(=O)C3(c4ccccc4)CC3)cc2s1 [Compound 126]
16 | 100 ± 12.7 nM | 430 ± 132 nM |  |  | COc1cccc(CNCc2ccc3sc(C(=O)NO)cc3c2)c1 [Compound 148]
17 | 19 ± 5.6 nM | 238 nM |  |  | O=C(Cc1ccc(Cl)cc1)Nc1ccc2cc(C(=O)NO)sc2c1 [Compound 88]
18 | 124 ± 24 nM | 531 nM |  |  | O=C(NO)c1cc2cc(CNCc3ccc(Cl)cc3)ccc2s1 [Compound 153]
19 | 119 nM | 717 nM |  |  | O=C(Nc1ccc2sc(C(=O)NO)cc2c1)OCc1ccccc1 [Compound 36]
20 | 316 ± 56.5 nM | 751 nM |  |  | O=C(CN(Cc1ccccc1)Cc1ccccc1)Nc1ccc2cc(C(=O)NO)sc2c1 [Compound 93]
21 | 18.5 ± 2.1 nM |  | 140 nM |  | CCC(C(=O)Nc1ccc2cc(C(=O)NO)sc2c1)c1ccccc1 (stereo not drawn) [Compound 180]
22 | 48.5 ± 6.3 nM | 90 nM |  |  | COc1ccccc1CNCc1ccc2cc(C(=O)NO)sc2c1 [Compound 185]
23 | 151 ± 28.2 nM | 990 nM |  |  | O=C(NO)c1cc2cc(CNCCc3c[nH]c4ccccc34)ccc2s1 [Compound 145]
24 | 19.5 ± 0.7 nM | 205 ± 37.5 nM |  |  | COc1ccc(CC(=O)Nc2ccc3cc(C(=O)NO)sc3c2)cc1 [Compound 89]
25 | 110 ± 14.1 nM | 587 nM |  |  | COc1ccc(CNCc2ccc3sc(C(=O)NO)cc3c2)cc1 [Compound 162]
26 | 61 ± 15.5 nM | 833 ± 65 nM |  |  | O=C(Cc1cccnc1)Nc1ccc2cc(C(=O)NO)sc2c1 [Compound 110]
27 | 178 ± 55.8 nM | 899 nM |  |  | O=C(CN1CCN(C(=O)OCc2ccccc2)CC1)Nc1ccc2cc(C(=O)NO)sc2c1 [Compound 91]
